Key:
Format in all cases: biochemical
[1] = biological target: T1, Kdr (Homo sapiens, UniProt P35968); experiment: Z'-Lyte FRET kinase assay (Invitrogen), Kdr; details: read-out: IC50, activity toward kinase Kdr
T1 construct: purchased Invitrogen (assay run by Invitrogen)

[2] = biological target: T2, Ret (Homo sapiens, UniProt P07949); experiment: AlphaScreen kinase assay, Ret; details: read-out: IC50, activity toward kinase Ret
T2 construct: P1378.pET-SF BI-PTP RET H661-R1012 HIS; made in house
T2 sequence (P07949 with tags, fused parts or gaps): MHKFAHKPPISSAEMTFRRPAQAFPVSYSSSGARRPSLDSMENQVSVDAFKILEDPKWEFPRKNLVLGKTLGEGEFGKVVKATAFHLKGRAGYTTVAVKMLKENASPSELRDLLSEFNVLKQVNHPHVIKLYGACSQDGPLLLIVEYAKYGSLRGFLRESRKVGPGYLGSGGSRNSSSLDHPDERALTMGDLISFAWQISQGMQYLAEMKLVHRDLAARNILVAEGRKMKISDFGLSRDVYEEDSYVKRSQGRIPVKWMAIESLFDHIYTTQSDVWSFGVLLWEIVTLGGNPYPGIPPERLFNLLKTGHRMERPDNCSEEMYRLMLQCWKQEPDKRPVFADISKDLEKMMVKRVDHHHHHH

[3] = biological target: T3, Btk (Homo sapiens, UniProt Q06187); experiment: Z'-Lyte FRET kinase assay (Invitrogen), Btk; details: read-out: IC50, activity toward kinase Btk
T3 construct: purchased Invitrogen (assay run by Invitrogen)

[4] = biological target: Plk1 (Homo sapiens, UniProt P53350); experiment: AlphaScreen kinase assay, Plk1; details: read-out: IC50, activity toward kinase Plk1
Sequence of Plk1 (P53350 whole entry): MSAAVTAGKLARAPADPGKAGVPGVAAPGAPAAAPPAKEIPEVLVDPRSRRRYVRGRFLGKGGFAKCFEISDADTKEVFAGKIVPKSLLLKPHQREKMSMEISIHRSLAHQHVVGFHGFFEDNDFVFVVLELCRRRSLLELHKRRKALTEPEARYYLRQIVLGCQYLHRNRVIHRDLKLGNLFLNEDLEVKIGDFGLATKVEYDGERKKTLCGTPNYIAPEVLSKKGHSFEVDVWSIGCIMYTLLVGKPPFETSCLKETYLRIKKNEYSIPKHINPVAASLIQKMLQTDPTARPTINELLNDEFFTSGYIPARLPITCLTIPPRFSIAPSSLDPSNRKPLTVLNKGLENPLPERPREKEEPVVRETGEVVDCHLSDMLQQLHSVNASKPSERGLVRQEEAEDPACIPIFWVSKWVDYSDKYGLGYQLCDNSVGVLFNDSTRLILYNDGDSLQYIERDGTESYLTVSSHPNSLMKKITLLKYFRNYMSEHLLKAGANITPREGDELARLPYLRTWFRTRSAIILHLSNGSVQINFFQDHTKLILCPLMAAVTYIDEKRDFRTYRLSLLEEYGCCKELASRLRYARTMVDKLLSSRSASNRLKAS
From the text: (§1) AlphaScreen assay was used to screen additional kinases. The assay is similarly dependent on the phosphorylation of a peptide substrate. In this assay, an antibody that recognizes phosphorylated substrate is bound to an acceptor bead. The peptide substrate is attached to biotin, which binds to a donor head that contains streptavidin. Thus phosphorylated substrate is bound by antibody and streptavidin, bringing the donor and acceptor heads into close proximity when kinase is not inhibited. The donor produces singlet oxygen which results in emission from the acceptor when they are in close proximity. Conversely, when kinase is inhibited, the donor and acceptor beads are not associated and the emission from the acceptor is reduced.
(§2) AlphaScreen assays were done using compounds dissolved in DMSO to a concentration of 20 mM. The compounds were diluted accordingly to the desired final concentrations in each sample well, using 1:3 serial dilution for a total of 8 concentration points.

[5] = biological target: T4, Stk6 (Homo sapiens, UniProt O14965); experiment: Z'-Lyte FRET kinase assay (Invitrogen), Stk6; details: read-out: IC50, activity toward kinase Stk6
T4 construct: purchased Invitrogen (Carlsbad, Calif.), screening service
T4 sequence (O14965 1-403): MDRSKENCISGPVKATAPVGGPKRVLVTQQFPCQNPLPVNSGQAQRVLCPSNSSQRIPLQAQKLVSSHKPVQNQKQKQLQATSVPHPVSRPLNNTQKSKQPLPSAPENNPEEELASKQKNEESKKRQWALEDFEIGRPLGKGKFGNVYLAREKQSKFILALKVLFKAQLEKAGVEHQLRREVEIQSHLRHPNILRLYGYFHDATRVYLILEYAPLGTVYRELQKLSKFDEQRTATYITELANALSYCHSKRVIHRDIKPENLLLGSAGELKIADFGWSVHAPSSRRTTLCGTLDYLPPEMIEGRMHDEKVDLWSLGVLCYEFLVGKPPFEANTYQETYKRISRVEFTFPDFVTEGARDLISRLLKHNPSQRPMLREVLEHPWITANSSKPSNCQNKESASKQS

[6] = biological target: T5, B-Raf V600E (Homo sapiens, UniProt P15056, V600E); experiment: AlphaScreen kinase assay, B-Raf V600E; details: read-out: IC50, activity toward kinase B-Raf V600E
T5 construct: P4254. pFastBacBD-CDC37 BRAF D437-K722-X, V600E; His6 with pFastBac HT leader (TEV site) (N); made in house; host or cells: Sf9 (baculovirus; chaperone CDC37 co-expressed)
T5 sequence (P15056 with tags, fused parts or gaps V600E): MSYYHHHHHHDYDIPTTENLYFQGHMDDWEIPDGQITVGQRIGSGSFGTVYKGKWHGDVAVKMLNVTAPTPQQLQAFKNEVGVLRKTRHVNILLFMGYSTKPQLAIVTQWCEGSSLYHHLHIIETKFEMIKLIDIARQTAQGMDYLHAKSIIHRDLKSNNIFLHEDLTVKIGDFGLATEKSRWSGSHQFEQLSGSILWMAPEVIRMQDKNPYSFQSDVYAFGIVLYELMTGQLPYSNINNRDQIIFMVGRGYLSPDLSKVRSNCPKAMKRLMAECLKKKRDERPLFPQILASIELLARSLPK

[7] = biological target: T6, FGFR1 (Homo sapiens, UniProt P11362, C488A/C584S); experiment: AlphaScreen kinase assay, FGFR1; details: read-out: IC50, activity toward kinase FGFR
T6 construct: P1351.pET N6 BI-PTP FGFR A458-E765-X C488A, C584S; made in house; host or cells: E. coli (PTP1B co-expressed)
T6 sequence (P11362 458-765 C488A/C584S): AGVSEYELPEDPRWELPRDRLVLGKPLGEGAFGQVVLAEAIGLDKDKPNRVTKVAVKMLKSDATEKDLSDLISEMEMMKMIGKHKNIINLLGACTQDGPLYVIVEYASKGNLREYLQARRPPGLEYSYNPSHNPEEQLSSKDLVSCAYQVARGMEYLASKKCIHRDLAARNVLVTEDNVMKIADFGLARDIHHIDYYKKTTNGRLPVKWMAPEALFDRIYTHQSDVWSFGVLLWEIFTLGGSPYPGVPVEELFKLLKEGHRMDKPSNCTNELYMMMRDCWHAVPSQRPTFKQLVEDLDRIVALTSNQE

[8] = biological target: T7, B-Raf (Homo sapiens, UniProt P15056); experiment: AlphaScreen kinase assay, B-Raf; details: read-out: IC50, activity toward kinase B-Raf
T7 construct: purchased Upstate Biotechnology
T7 sequence (P15056 whole entry): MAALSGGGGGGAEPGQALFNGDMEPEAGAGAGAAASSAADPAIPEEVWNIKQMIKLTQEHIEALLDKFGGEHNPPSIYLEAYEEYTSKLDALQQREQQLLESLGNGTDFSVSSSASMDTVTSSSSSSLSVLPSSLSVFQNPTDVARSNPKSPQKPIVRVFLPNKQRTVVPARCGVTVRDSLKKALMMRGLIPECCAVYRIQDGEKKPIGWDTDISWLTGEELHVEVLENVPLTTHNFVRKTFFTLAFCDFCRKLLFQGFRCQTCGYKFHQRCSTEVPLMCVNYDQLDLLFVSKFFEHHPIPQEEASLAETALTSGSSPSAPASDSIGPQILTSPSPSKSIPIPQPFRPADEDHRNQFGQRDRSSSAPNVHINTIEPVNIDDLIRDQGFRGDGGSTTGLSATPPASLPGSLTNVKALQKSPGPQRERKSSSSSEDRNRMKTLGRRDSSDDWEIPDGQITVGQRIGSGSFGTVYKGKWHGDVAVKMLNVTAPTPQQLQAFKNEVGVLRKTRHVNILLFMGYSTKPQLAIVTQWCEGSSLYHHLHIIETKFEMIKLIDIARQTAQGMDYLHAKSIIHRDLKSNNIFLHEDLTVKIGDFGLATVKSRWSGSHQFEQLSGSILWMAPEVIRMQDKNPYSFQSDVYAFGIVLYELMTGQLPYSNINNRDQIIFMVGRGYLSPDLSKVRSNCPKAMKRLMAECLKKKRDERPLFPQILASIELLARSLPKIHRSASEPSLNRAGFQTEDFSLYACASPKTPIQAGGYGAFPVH

[9] = biological target: T8, Flt1 (Homo sapiens, UniProt P17948); experiment: AlphaScreen kinase assay, Flt1; details: read-out: IC50, activity toward kinase Flt1
T8 construct: P1826.pETN6 BI-PTP FLT1 M799-D1165-X WT; His6 (N); made in house; host or cells: E. coli (PTP1B co-expressed)
T8 sequence (P17948 with tags, fused parts or gaps): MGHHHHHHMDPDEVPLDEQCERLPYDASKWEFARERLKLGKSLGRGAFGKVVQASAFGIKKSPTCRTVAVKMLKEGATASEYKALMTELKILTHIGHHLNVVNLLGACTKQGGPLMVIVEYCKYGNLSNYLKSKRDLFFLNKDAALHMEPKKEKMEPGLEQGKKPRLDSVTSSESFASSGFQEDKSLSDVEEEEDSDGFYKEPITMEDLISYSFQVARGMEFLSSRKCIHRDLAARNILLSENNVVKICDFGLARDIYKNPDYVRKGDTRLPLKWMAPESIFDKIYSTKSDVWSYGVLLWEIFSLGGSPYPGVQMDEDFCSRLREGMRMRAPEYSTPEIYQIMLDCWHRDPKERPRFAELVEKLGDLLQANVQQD

[10] = biological target: T9, Jnk3 (Homo sapiens, UniProt P53779); experiment: AlphaScreen kinase assay, Jnk3; details: read-out: IC50, activity toward kinase Jnk3
T9 construct: purchased Upstate Biotechnology
T9 sequence (P53779 whole entry): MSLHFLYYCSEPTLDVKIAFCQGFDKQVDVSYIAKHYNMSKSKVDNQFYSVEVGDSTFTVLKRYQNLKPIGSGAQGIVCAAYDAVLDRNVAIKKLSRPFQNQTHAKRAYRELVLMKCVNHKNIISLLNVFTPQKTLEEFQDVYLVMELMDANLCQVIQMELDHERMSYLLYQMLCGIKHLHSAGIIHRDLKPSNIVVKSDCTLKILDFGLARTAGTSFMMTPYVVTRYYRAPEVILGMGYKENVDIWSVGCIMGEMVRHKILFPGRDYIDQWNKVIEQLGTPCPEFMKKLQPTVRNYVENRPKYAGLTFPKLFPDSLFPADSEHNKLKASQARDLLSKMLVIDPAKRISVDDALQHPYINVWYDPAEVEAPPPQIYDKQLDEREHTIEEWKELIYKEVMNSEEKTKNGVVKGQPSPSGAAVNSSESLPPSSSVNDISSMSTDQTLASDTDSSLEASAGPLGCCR

[11] = biological target: T10, Abl (Homo sapiens, UniProt P00519); experiment: AlphaScreen kinase assay, Abl; details: read-out: activity toward kinase Abl, IC50
T10 construct: P1121. pET-SPEC BI-PTP Abl G227-V515-X; His6 (N); made in house; host or cells: E. coli (PTP1B co-expressed)
T10 sequence (P00519 with tags, fused parts or gaps): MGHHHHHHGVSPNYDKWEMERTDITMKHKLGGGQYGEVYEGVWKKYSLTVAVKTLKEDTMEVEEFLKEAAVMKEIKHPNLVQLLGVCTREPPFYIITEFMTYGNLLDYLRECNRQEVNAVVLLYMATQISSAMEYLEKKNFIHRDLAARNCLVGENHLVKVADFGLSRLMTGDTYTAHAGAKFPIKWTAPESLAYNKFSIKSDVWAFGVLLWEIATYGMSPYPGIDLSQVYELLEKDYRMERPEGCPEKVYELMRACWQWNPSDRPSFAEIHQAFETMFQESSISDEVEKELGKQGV
Procedure, shortened: (§3)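 Bead-proximity format: phosphopeptide links anti-phospho antibody acceptor beads to streptavidin donor beads via biotin tag. Compounds were serially diluted 1:3 (8 points) from 20 mM stocks in DMSO.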

[12] = biological target: T11, Jnk1 (Homo sapiens, UniProt P45983); experiment: AlphaScreen kinase assay, Jnk1; details: read-out: IC50, activity toward kinase Jnk1
T11 construct: purchased Upstate Biotechnology
T11 sequence (P45983 whole entry): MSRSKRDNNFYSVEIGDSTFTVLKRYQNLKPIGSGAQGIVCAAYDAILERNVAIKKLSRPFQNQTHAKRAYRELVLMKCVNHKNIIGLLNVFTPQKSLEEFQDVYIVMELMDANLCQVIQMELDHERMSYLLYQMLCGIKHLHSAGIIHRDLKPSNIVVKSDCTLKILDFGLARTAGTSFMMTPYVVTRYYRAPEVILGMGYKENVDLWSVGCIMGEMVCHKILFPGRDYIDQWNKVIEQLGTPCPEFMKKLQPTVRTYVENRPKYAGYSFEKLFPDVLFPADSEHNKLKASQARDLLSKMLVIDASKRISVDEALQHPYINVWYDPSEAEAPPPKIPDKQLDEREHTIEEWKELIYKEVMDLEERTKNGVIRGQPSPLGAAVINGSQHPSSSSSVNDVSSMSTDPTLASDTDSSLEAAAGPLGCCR

[13] = biological target: T12, Jnk2 (Homo sapiens, UniProt P45984); experiment: AlphaScreen kinase assay, Jnk2; details: read-out: IC50, activity toward kinase Jnk2
T12 construct: purchased Roche Protein Expression Group (Indianapolis, IN)
Procedure, shortened: as §3

[14] = biological target: T13, Kit (Homo sapiens, UniProt P10721); experiment: AlphaScreen kinase assay, Kit; details: read-out: IC50, activity toward kinase Kit
T13 construct: P1332.N6 BI PTP KIT M552-K948-X COD; His6 (N); made in house; host or cells: E. coli (PTP1B co-expressed)
T13 sequence (P10721 with tags, fused parts or gaps): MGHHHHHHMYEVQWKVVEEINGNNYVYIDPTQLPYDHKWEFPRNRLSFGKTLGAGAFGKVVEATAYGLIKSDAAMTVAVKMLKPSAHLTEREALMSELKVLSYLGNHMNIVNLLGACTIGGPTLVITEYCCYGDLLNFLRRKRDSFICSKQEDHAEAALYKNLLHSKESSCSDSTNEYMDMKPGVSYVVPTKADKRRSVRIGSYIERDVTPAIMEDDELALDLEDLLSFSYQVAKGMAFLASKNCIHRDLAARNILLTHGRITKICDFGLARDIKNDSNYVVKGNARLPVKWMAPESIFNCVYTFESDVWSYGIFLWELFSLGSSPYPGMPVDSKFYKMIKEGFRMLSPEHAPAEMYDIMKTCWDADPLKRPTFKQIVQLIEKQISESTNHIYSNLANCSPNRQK

[15] = biological target: T14, Itk (Homo sapiens, UniProt Q08881); experiment: AlphaScreen kinase assay, Itk; details: read-out: IC50, activity toward kinase Itk
T14 sequence (Q08881 1-620): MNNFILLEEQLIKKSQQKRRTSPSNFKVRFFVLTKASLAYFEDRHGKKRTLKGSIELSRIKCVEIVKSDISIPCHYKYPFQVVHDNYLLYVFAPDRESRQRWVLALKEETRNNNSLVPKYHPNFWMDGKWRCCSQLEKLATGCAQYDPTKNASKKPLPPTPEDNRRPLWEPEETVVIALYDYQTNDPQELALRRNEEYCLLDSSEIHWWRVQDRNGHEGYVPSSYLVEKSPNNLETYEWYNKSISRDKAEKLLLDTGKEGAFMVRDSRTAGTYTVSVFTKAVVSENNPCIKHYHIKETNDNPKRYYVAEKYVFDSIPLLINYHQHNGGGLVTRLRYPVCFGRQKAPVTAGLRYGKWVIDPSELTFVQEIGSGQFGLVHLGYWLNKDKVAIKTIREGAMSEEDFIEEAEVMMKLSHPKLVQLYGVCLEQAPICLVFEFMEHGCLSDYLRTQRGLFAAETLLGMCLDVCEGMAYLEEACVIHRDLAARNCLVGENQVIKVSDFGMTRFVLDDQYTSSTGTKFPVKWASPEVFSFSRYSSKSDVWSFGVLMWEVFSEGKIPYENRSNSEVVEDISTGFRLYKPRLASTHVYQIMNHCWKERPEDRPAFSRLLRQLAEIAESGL
From the text: as §1, §2

[16] = biological target: T15, Flt4 (Homo sapiens, UniProt P35916); experiment: AlphaScreen kinase assay, Flt4; details: read-out: IC50, activity toward kinase Flt4
T15 construct: purchased ProQinase GmbH (Freiburg, Germany)
Procedure, shortened: as §3

[17] = biological target: T16, c-Raf-1 (Homo sapiens, UniProt P04049); experiment: AlphaScreen kinase assay, c-Raf-1; details: read-out: IC50, activity toward kinase c-Raf-1
T16 construct: purchased Upstate Biotechnology

[18] = biological target: T17, Met (Homo sapiens, UniProt P08581); experiment: AlphaScreen kinase assay, Met; details: read-out: IC50, activity toward kinase Met
T17 construct: P1818.pETN6 BI-PTP MET G1056-G1364-X WT; His6 (N); made in house; host or cells: E. coli (PTP1B co-expressed)
T17 sequence (P08581 with tags, fused parts or gaps): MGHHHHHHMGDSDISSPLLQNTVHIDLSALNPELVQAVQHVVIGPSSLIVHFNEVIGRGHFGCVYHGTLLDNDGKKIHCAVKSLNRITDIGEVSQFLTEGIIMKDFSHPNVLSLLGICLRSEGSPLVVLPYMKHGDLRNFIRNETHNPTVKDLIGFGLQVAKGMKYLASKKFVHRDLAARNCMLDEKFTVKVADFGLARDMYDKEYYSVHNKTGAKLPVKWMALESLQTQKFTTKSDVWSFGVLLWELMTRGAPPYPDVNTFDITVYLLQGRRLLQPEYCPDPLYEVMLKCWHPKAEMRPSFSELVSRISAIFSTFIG
Procedure, shortened: as §3

[19] = biological target: T18, Fms (Homo sapiens, UniProt P07333); experiment: AlphaScreen kinase assay, Fms; details: read-out: IC50, activity toward kinase Fms
T18 construct: purchased Upstate Biotechnology

[20] = biological target: T19, Fak (Homo sapiens, UniProt Q05397); experiment: AlphaScreen kinase assay, Fak; details: read-out: IC50, activity toward kinase Fak
T19 construct: P1358.pFastBacHtb FAK S411-Q686-X; His6 with pFastBacHTb leader (TEV site) (N); made in house; host or cells: Sf9 (baculovirus)

[21] = biological target: Akt3 (Homo sapiens, UniProt Q9Y243); experiment: AlphaScreen kinase assay, Akt3; details: read-out: IC50, activity toward kinase Akt3
Procedure, shortened: as §3

Measured: IC50

T1 sequence (P35968 20-1356): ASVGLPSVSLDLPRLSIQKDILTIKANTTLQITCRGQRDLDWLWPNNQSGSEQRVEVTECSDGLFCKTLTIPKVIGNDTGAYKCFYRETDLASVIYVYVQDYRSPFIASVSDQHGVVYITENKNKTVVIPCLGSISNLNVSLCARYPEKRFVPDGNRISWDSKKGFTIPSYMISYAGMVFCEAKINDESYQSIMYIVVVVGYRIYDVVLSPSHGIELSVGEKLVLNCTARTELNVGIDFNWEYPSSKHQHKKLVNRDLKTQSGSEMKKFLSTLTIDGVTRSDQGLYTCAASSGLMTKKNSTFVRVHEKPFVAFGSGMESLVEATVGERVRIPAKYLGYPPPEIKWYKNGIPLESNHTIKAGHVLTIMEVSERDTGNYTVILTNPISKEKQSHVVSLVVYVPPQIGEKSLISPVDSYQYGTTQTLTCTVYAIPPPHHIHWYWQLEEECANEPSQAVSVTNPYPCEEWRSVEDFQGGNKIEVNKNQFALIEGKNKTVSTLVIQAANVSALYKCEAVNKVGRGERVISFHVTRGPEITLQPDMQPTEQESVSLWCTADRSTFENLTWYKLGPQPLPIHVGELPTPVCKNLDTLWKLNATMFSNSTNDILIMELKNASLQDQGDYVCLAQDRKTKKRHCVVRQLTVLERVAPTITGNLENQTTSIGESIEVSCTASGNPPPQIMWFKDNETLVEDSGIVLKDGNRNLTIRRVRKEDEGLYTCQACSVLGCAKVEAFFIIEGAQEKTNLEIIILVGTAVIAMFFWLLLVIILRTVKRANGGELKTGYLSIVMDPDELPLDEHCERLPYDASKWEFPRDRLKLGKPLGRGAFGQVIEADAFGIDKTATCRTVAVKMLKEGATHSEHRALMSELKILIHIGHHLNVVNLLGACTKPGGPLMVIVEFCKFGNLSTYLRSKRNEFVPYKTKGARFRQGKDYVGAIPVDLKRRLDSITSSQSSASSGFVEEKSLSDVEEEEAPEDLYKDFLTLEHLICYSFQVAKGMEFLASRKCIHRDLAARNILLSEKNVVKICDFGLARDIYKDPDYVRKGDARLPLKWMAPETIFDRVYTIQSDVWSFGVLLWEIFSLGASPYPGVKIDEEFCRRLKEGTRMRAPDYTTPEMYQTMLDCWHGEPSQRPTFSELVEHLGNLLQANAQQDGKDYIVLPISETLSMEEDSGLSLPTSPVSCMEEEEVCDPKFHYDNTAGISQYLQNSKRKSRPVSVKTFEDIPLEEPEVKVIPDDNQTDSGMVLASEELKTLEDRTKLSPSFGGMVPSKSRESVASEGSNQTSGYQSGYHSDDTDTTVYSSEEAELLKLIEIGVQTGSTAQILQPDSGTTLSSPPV

O=C(c1ccc(Cl)cc1)c1c[nH]c2nccc(-c3cccnc3)c12 [Compound P-0113]
≤ 10 µM: [1] | [2] | [3] | [4]

Clc1ccc(Cc2c[nH]c3nccc(-c4ccccc4)c23)cn1 [Compound P-0286]
≤ 10 µM: [2] | [4]

Cc1cc(C(=O)c2c[nH]c3nccc(-c4cccc(N)c4)c23)n(C)n1 [Compound P-0332]
≤ 10 µM: [4]

O=S(=O)(NCc1ccnc2[nH]ccc12)c1ccc(F)c(F)c1 [Compound P-0345]
≤ 10 µM: [4] | [5]

O=[N+]([O-])c1ccc(S(=O)(=O)NCc2ccnc3[nH]ccc23)cc1 [Compound P-0366]
≤ 10 µM: [4]

O=[N+]([O-])c1cccc(S(=O)(=O)NCc2ccnc3[nH]ccc23)c1 [Compound P-0480]
≤ 10 µM: [4]

O=C(O)CCc1c[nH]c2ncccc12 [Compound P-0490]
≤ 10 µM: [4]

COc1cccc(C(=O)c2c[nH]c3ncc(-c4cccc(N)c4)cc23)c1 [Compound P-0579]
not listed: [3] | [4] | [5] | [17] | [18] | [19] | [20] | [21]
≤ 10 µM: all other assays above

O=S(=O)(Cc1ccccc1)NCc1c[nH]c2ncccc12 [Compound P-0581]
≤ 10 µM: [4]

Oc1cccc(Cc2c[nH]c3ncc(-c4cccnc4)cc23)c1F [Compound P-0778, 2-Fluoro-3-(5-pyridin-3-yl-1H-pyrrolo[2,3-b]pyridin-3-ylmethyl)-phenol]
≤ 10 µM: [6] | [8] | [2] | [10] | [17] | [18] | [14] | [15] | [19]

CCN(CC)c1ccc(Nc2cnc3[nH]ccc3c2)cc1 [Compound P-0951]
≤ 10 µM: [6] | [20] | [1] | [7] | [9] | [10] | [18] | [21] | [14] | [15]

O=S(=O)(Cc1cccc(Cl)c1)NCc1c[nH]c2ncccc12 [Compound P-1138]
≤ 10 µM: [6] | [4]

— patent US8415469B2, “Compounds and methods for kinase modulation, and indications therefor” (Plexxikon Inc., priority 2005, dated 2013)
